Results published in ChEMBL document CHEMBL1121748, “Antimycotic imidazoles. 5. Synthesis and antimycotic properties of 1-[[2-aryl-4-(arylalkyl)-1,3-dioxolan-2-yl]methyl]-1H-imidazoles” (1981).

Legend:
Aspergillus fumigatus = test: Antifungal activity against Aspergillus fumigatus; assay type: functional
Candida tropicalis = test: Antifungal activity against Candida tropicalis; assay type: functional
[1] = test system: Erysipelothrix rhusiopathiae; test: Antibacterial activity against Erysipelothrix insidiosa; assay type: functional
Microsporum canis = test: Antifungal activity against Microsporum canis; assay type: functional
Mucor = test: Antifungal activity against Mucor species; assay type: functional
Phialophora verrucosa = test: Antifungal activity against Phialophora verrucosa; assay type: functional
Saprolegnia = test: Antifungal activity against Saprolegnia species; assay type: functional
Sporothrix schenckii = test: Antifungal activity against Sporothrix schenck ii; assay type: functional
Streptococcus pyogenes = test: Antibacterial activity against Streptococcus pyogenes; assay type: functional
[2] = test system: Staphylococcus haemolyticus; test: Antibacterial against Staphylococcus hemolyticus; assay type: functional
Trichophyton benhamiae = test: Antifungal activity against Trichophyton mentagrophytes; assay type: functional, trychophyton mentagrophytes
[3] = Ratio of animals cured to that of animals infected, tested in vivo for antifungal activity against cutaneous candidosis in guinea pig; 1/2; assay type: functional
Trichophyton rubrum = test: Antifungal activity against Trichophyton rubrum; assay type: functional
Cryptococcus neoformans = test: Antifungal activity against Cryptococcus neoformans; assay type: functional
Candida albicans = test: Antifungal activity against Candida albicans; assay type: functional
[4] = Ratio of animals cured to that of animals infected, tested in vivo for antifungal activity against vaginal candidosis in rat; 2/2
[5] = Ratio of animals cured to that of animals […], Tested in vivo for antifungal activity against vaginal candidosis in rat; 0/2; assay type: functional
[6] = Ratio of animals cured to that of animals infected, tested in vivo for antifungal activity against cutaneous candidosis in guinea pig; 2/2; assay type: functional; note: test concentration or dose not given here
[7] = Ratio of animals cured to that of animals infected, tested in vivo for antifungal activity against vaginal candidosis in rat; 0/2; note: test concentration or dose not given here
[8] = Ratio of animals cured to that of animals infected, tested in vivo for antifungal activity against cutaneous candidosis in guinea pig; 0/2; assay type: functional; note: test concentration or dose not given here
[9] = Ratio of animals cured to that of animals […], Tested in vivo for antifungal activity against vaginal candidosis in rat; 1/2; assay type: functional

| SMILES | Inhibition (Aspergillus fumigatus) [µg/mL] | Inhibition (Candida tropicalis) [µg/mL] | Inhibition [1] [µg/mL] | Inhibition (Microsporum canis) [µg/mL] | Inhibition (Mucor) [µg/mL] | Inhibition (Phialophora verrucosa) [µg/mL] | Inhibition (Saprolegnia) [µg/mL] | Inhibition (Sporothrix schenckii) [µg/mL] | Inhibition (Streptococcus pyogenes) [µg/mL] | Inhibition [2] [µg/mL] | Inhibition (Trichophyton benhamiae) [µg/mL] | Inhibition (Trichophyton rubrum) [µg/mL] | Inhibition (Cryptococcus neoformans) [µg/mL] | Inhibition (Candida albicans) [µg/mL] | Ratio [5] | other results |
| --- | --- | --- | --- | --- | --- | --- | --- | --- | --- | --- | --- | --- | --- | --- | --- | --- |
| Clc1ccc(C2COC(Cn3ccnc3)(c3ccc(Cl)cc3Cl)O2)cc1 (centres undefined) | <1 | 10 | 1 | <1 | 10 | 100 | 100 | 10 | 1 | 10 | <1 | <1 | <1 | 100 | – | Ratio [3]: 1 |
| Clc1ccc(C2COC(Cn3ccnc3)(c3ccc(Cl)cc3Cl)O2)c(Cl)c1 (centres undefined) | <1 | >100 | <1 | 10 | 10 | 100 | 100 | 10 | <1 | 10 | <1 | <1 | <1 | >100 | – | Ratio [4]: 2 |
| Cc1ccc(C2COC(Cn3ccnc3)(c3ccc(Cl)cc3)O2)cc1 (centres undefined) | <1 | >100 | <1 | <1 | 100 | 100 | 100 | 10 | <1 | 100 | <1 | <1 | <1 | 100 | 0 | – |
| Fc1ccc(C2COC(Cn3ccnc3)(c3ccc(Cl)cc3)O2)cc1 (centres undefined) | <1 | 100 | 100 | <1 | 10 | 100 | 100 | 10 | 10 | >100 | <1 | <1 | 10 | 100 | 0 | Ratio [6]: 1 |
| Clc1ccc(C2(Cn3ccnc3)OCC(Cc3ccc(-c4ccccc4)cc3)O2)c(Cl)c1 (centres undefined) | 10 | >100 | 1 | 10 | >100 | >100 | 100 | 100 | 1 | 10 | <1 | <1 | 100 | >100 | 0 | – |
| Clc1ccc(CC2COC(Cn3ccnc3)(c3ccc(Cl)cc3Cl)O2)cc1 (centres undefined) | 10 | 10 | <1 | <1 | 10 | 100 | 100 | 10 | 100 | 10 | <1 | <1 | 1 | 10 | – | Ratio [6]: 2; Ratio [7]: 0 |
| Clc1ccc(C2(Cn3ccnc3)OCC(c3ccccc3)O2)c(Cl)c1 (centres undefined) | <1 | >100 | 10 | <1 | 100 | 100 | 100 | 10 | 10 | >100 | <1 | <1 | 100 | 100 | 0 | – |
| COc1ccc(CC2COC(Cn3ccnc3)(c3ccc(Cl)cc3Cl)O2)cc1 (centres undefined) | – | – | – | <1 | – | 10 | 10 | – | <1 | 100 | <1 | – | – | – | 0 | – |
| Clc1ccc(C2(Cn3ccnc3)OCC(c3ccc(Br)cc3)O2)cc1 (centres undefined) | <1 | 10 | <1 | <1 | 10 | 100 | <1 | 10 | <1 | 10 | <1 | <1 | <1 | 10 | – | Ratio [8]: 0; Ratio [4]: 2 |
| Brc1ccc(C2COC(Cn3ccnc3)(c3ccc(Br)cc3)O2)cc1 (centres undefined) | <1 | 100 | <1 | <1 | 10 | 100 | 100 | 10 | <1 | 10 | <1 | <1 | <1 | >100 | – | Ratio [8]: 0; Ratio [7]: 0 |
| Cc1ccc(CC2COC(Cn3ccnc3)(c3ccc(Cl)cc3Cl)O2)cc1 (centres undefined) | 10 | >100 | <1 | <1 | 10 | 100 | 10 | 10 | <1 | <1 | <1 | <1 | <1 | 10 | 0 | – |
| Fc1ccc(CC2COC(Cn3ccnc3)(c3ccc(Cl)cc3Cl)O2)cc1 (centres undefined) | 10 | 100 | <1 | <1 | <1 | 100 | 10 | 10 | 10 | 10 | <1 | <1 | 10 | 100 | 0 | – |
| Clc1ccc(C2(Cn3ccnc3)OCC(CCc3ccc(-c4ccccc4)cc3)O2)c(Cl)c1 (centres undefined) | 10 | >100 | <1 | <1 | >100 | >100 | 10 | 10 | <1 | 100 | <1 | <1 | 10 | >100 | 0 | – |
| Clc1ccc(C2(Cn3ccnc3)OCC(Cc3ccccc3)O2)c(Cl)c1 (centres undefined) | <1 | 10 | <1 | <1 | 10 | 100 | 10 | 10 | 10 | 10 | <1 | <1 | <1 | 100 | 0 | Ratio [6]: 2 |
| Cc1ccc(C2(Cn3ccnc3)OCC(c3ccccc3Cl)O2)cc1 (centres undefined) | 100 | >100 | 1 | 10 | 100 | 100 | 100 | 10 | <1 | 100 | <1 | <1 | 100 | 100 | – | Ratio [9]: 0.5; Ratio [8]: 0 |
| Clc1ccccc1C1COC(Cn2ccnc2)(c2ccc(Br)cc2)O1 (centres undefined) | 100 | >100 | <1 | <1 | 10 | 100 | 100 | 10 | 10 | 100 | <1 | <1 | <1 | 100 | – | Ratio [8]: 0; Ratio [7]: 0 |
